# Measured values: patent publication US20250008956A1, “COMPOSITIONS AND A METHOD OF IMPROVING PLANT HEALTH AND CONTROLLING INSECTS” (UPL LIMITED, priority 2021, published 2025)
# What was measured:
# Format in all cases: in vivo
# rice crop [1] = assay: Dead heart count in rice crop; conditions: GR, g a.i./ha: Flupyrimin 150, Cartap 1000, Cartap + EMA 581, Fipronil 60; for Dead hearts (count) 7 DAA: 7 days after application; for Dead hearts (count) 14 DAA: 14 days after application; for Dead hearts (count) 21 DAA: 21 days after application; for Dead hearts (count) 28 DAA: 28 days after application; for Dead hearts (count) Pre-count: pre-count before application
# Source text: (§1) Injury in plants is often first noticed when the youngest partially unfurled leaf of the plant begins to whiter and die, resulting in a condition called dead heart. Dead hearts can be caused by any stem borer. Typical bore holes will be seen on the stem. Usually, a single larva is seen inside the stem. It remains inside the stem and feeds on the internal contents. The shoot of the affected plant can be pulled off easily, a symptom known as dead heart. At maturity, the grains become chaffy, which is known as white ear and eventually the whole plant finally dies.
# (§2) The phytotonic effect of flupyrimin in rice crop in terms of the dead heart count, number of ears, productive tillers/hill and the hill stability were determined.
# The observations were made at 7DAA, 14 DAA, 21 DAA and 28 DAA (days after application).
# rice crop [2] = assay: White ear count in rice crop; conditions: GR, g a.i./ha: Flupyrimin 150, Cartap 1000, Cartap + EMA 581, Fipronil 60
# Source text: as §1, §2
# rice crop [3] = assay: Number of tillers and productive tillers per hill in rice crop; conditions: for No. of tillers/hill at 45 DAA / No. of productive tillers/hill at heading: rice, GR, g a.i./ha: Flupyrimin 150, Cartap 1000, Cartap + EMA 581, Fipronil 60
# rice = assay: Hill stability test (tiller sturdiness, girth) in rice; conditions: flupyrimin composition (2% GR)
# Procedure: The hill stability test was performed to determine the tiller strength of the hill. Accordingly, rice was subjected to flupyrimin treatment at 23 days after transplanting (DAT) and observations were taken at 20 DAA (days after application).
# Hill stability is an important plant growth feature, as it protects the crop from lodging. It becomes especially important in tall varieties and in areas prone to high winds, cyclones, heavy rains etc. Due to hill stability, the plant is able to sustain the natural forces. Hill stability is also important in case of high pest and disease pressure, which makes the plant weak and loses the tiller strength.
# wheat [4] = assay: % germination of wheat seed after seed treatment; conditions: seed treatment 500 g/L FS
# Procedure: The present inventors have observed the phytotonic effect of flupyrimin in wheat by determining the % germination, plant height, root length (cm) and plant vigor The seeds were treated with 500 g/L flupyrimin flowable concentrate (FS) formulation. […]
# wheat [5] = assay: Plant height, root length, tillers and plant vigor in wheat after seed treatment
# Procedure: (§3) The present inventors have observed the phytotonic effect of flupyrimin in wheat by determining the % germination, plant height, root length (cm) and plant vigor The seeds were treated with 500 g/L flupyrimin flowable concentrate (FS) formulation. The observations were made at 30 DAS and 45 DAS (days after seeding).
# wheat [6] = assay: Yield and test weight in wheat after seed treatment; set-up: Test weight (1000 grain weight): unit not given here
# mustard = assay: Plant height, root length and plant vigor in mustard after seed treatment; conditions: 500 g/L FS
# Procedure: as §3, with “mustard seeds” for “wheat”, “vigor.” for “vigor”
# [7] = test system: Nilaparvata lugens BPH (Brown plant hopper); assay: Brown plant hopper infestation after application; conditions: up-to 45 Days After application of composition comprising flupyrimin and/or a salt thereof
# [8] = 1.2 g AI/kg of seed (2.4 ml/kg)
# [9] = 2.0 g AI/kg of seed (4.0 ml/kg)
structure (smiles),measurement,setting,value
CN(C)C(CSC(N)=O)CSC(N)=O [Cartap],Dead hearts (count) 7 DAA,rice crop [1],0.21 count
same,Dead hearts (count) 14 DAA,rice crop [1],1.54 count
same,Dead hearts (count) 21 DAA,rice crop [1],3.08 count
same,Dead hearts (count) 28 DAA,rice crop [1],2.17 count
same,Dead hearts (count) Pre-count,rice crop [1],0.00 count
same,White ear/hill at heading,rice crop [2],2.33
same,No. of tillers/hill at 45 DAA,rice crop [3],18.07
same,No. of productive tillers/hill at heading,rice crop [3],13.77
N#Cc1nn(-c2c(Cl)cc(C(F)(F)F)cc2Cl)c(N)c1[S+]([O-])C(F)(F)F (centres unmarked) [Fipronil],Dead hearts (count) 7 DAA,rice crop [1],0.00 count
same,Dead hearts (count) 14 DAA,rice crop [1],0.40 count
same,Dead hearts (count) 21 DAA,rice crop [1],2.19 count
same,Dead hearts (count) 28 DAA,rice crop [1],1.24 count
same,Dead hearts (count) Pre-count,rice crop [1],0.00 count
same,White ear/hill at heading,rice crop [2],1.27
same,No. of tillers/hill at 45 DAA,rice crop [3],19
same,No. of productive tillers/hill at heading,rice crop [3],15.63
"O=C(/N=c1\ccccn1Cc1ccc(Cl)nc1)C(F)(F)F [Flupyrimin, N-[(E)-1-(6-chloro-3-pyridinylmethyl)pyridin-2 (1H)-ylidene]-2,2,2-trifluoroacetamide]",Dead hearts (count) 7 DAA,rice crop [1],0.00 count
same,Dead hearts (count) 14 DAA,rice crop [1],0.00 count
same,Dead hearts (count) 21 DAA,rice crop [1],0.04 count
same,Dead hearts (count) 28 DAA,rice crop [1],0.01 count
same,Dead hearts (count) Pre-count,rice crop [1],0.00 count
same,White ear/hill at heading,rice crop [2],0.17
same,Greater number of tillers against the market standards (average),"rice crop [3]; rice crop, granular formulation",2-3
same,No. of tillers/hill at 45 DAA,rice crop [3],22.47
same,No. of productive tillers/hill at heading,rice crop [3],19.63
same,Girth of tillers compared to untreated rice,rice,almost twice the girth
same,% Germination of Wheat Seed 6 DAS,wheat [4]; [8],92.0%
same,% Germination of Wheat Seed 9 DAS,wheat [4]; [8],93.0%
same,% Germination of Wheat Seed 12 DAS,wheat [4]; [8],95.5%
same,% Germination of Wheat Seed 6 DAS,wheat [4]; [9],92.0%
same,% Germination of Wheat Seed 9 DAS,wheat [4]; [9],93.8%
same,% Germination of Wheat Seed 12 DAS,wheat [4]; [9],96.0%
same,No. of tillers/plant 30 DAS,wheat [5]; [8],5.8
same,Plant Height (cm) 30 DAS,wheat [5]; [8],42.4 cm
same,Plant Vigor (0-5 Index scale) 30 DAS,wheat [5]; [8],5.0 0-5 Index scale
same,Root length (cm) 30 DAS,wheat [5]; [8],11.5 cm
same,No. of tillers/plant 45 DAS,wheat [5]; [8],6.4
same,Plant Height (cm) 45 DAS,wheat [5]; [8],57.9 cm
same,Plant Vigor (0-5 Index scale) 45 DAS,wheat [5]; [8],5.0 0-5 Index scale
same,Root length (cm) 45 DAS,wheat [5]; [8],12.3 cm
same,No. of tillers/plant 30 DAS,wheat [5]; [9],5.8
same,Plant Height (cm) 30 DAS,wheat [5]; [9],43.3 cm
same,Plant Vigor (0-5 Index scale) 30 DAS,wheat [5]; [9],5.0 0-5 Index scale
same,Root length (cm) 30 DAS,wheat [5]; [9],11.8 cm
same,No. of tillers/plant 45 DAS,wheat [5]; [9],6.5
same,Plant Height (cm) 45 DAS,wheat [5]; [9],58.1 cm
same,Plant Vigor (0-5 Index scale) 45 DAS,wheat [5]; [9],5.0 0-5 Index scale
same,Root length (cm) 45 DAS,wheat [5]; [9],12.7 cm
same,Test weight (1000 grain weight),wheat [6]; [8],55.3
same,Yield (Qt/ha),wheat [6]; [8],37.4 Qt/ha
same,Test weight (1000 grain weight),wheat [6]; [9],56.5
same,Yield (Qt/ha),wheat [6]; [9],37.8 Qt/ha
same,Plant Height (cm) 30 DAS,mustard; 4 g AI/kg of seed (8 ml/kg),21.7 cm
same,Plant Vigor (0-5 Index scale) 30 DAS,mustard; 4 g AI/kg of seed (8 ml/kg),5.0 0-5 Index scale
same,Root length (cm) 30 DAS,mustard; 4 g AI/kg of seed (8 ml/kg),18.2 cm
same,Plant Height (cm) 45 DAS,mustard; 4 g AI/kg of seed (8 ml/kg),93.2 cm
same,Plant Vigor (0-5 Index scale) 45 DAS,mustard; 4 g AI/kg of seed (8 ml/kg),5.0 0-5 Index scale
same,Root length (cm) 45 DAS,mustard; 4 g AI/kg of seed (8 ml/kg),20.8 cm
same,Plant Height (cm) 30 DAS,mustard; 6 g AI/kg of seed (12 ml/kg),22.8 cm
same,Plant Vigor (0-5 Index scale) 30 DAS,mustard; 6 g AI/kg of seed (12 ml/kg),5.0 0-5 Index scale
same,Root length (cm) 30 DAS,mustard; 6 g AI/kg of seed (12 ml/kg),18.3 cm
same,Plant Height (cm) 45 DAS,mustard; 6 g AI/kg of seed (12 ml/kg),95.6 cm
same,Plant Vigor (0-5 Index scale) 45 DAS,mustard; 6 g AI/kg of seed (12 ml/kg),5.0 0-5 Index scale
same,Root length (cm) 45 DAS,mustard; 6 g AI/kg of seed (12 ml/kg),21.1 cm
same,Nilaparvata lugens BPH infestation,[7],no Nilaparvata lugens BPH (Brown plant hopper) infestation is found
